Assay results published in patent US8354388B2, “Inhibitors of MRP4 for the treatment of vascular disorders” (INSERM (Institut National de la Sante et de la Recherche …, priority 2007, dated 2013).
Entries after “also recorded” stand apart in the source; their conditions may differ. Read-outs that look alike come from different tables or passages of the source.

Assays:
[1] = test system: human coronary artery smooth muscle cells (hCASMC); assay: BrdU incorporation proliferation assay in hCASMC; details: for hCASMC proliferation, relative increase compared to 0.1% S: without inhibitors 240±15.8%; for dose-effect on hCASMC proliferation: increasing doses; for inhibitory effect on hCASMC proliferation under inhibition of PKA by Ad-PKI: infection with Ad-PKI
Method: Cell proliferation was measured 72 hours after plating by BrdU incorporation and expressed as relative increase compared to growth supplement starved (0.1% S) cells. […] (b) Dose-effect of MRP and PDE inhibitors (DIP: Dipyridamole, IBMX, MK571 and NBMPR) on hCASMC proliferation. n=3 experiments in triplicate. * p≦0.05, ** p≦0.01, *** p≦0.001
Human smooth muscle cells were cultured in 96-wells tissue culture plates for 3 days in Smooth Muscle Cell Basal Medium 2 supplemented with 5% S. Medium containing 0.1% S was used for the growth arrest control. Cells were incubated with pharmacological agents or siRNA for 72 h in medium containing 5% S. BrdU was added for the last 16 hours. The cell culture plates were washed, and a colorimetric BrdU cell proliferation assay was performed according to the manufacturer's instructions (Roche).

[2] = test system: intracellular cAMP in hCASMC; assay: FRET imaging of cAMP with Epac2-camps in hCASMC; type: cell-based; details: Homo sapiens, read-out: EC50, dose providing 50% of maximal cAMP formation
Method: hCASMCs were transfected with scramble siRNA or the siRNA against MRP4 (each at 50 nM) in supplement-free medium over a period of 6 h, before the medium was replaced with supplement-containing medium. 24 h after the transfection, cells were infected with an adenovirus encoding the FRET-based cAMP sensor Epac2-camps. This FRET-based cAMP sensor contains a single cAMP binding domain of Epac2 fused to YFP and CFP fluorescent proteins. Upon addition of forskolin, increasing intra-cellular cAMP concentrations lead to a reversible conformational change of Epac2-camps which results in a decrease of FRET between CFP and YFP, leading to an increase in the CFP/YFP ratio^13. Imaging experiments were performed at 72 h and at room temperature. Cells were maintained in a K^+-Ringer solution containing (in mmol/L): NaCl 121.6, KCl 5.4, MgCl2 1.8; CaCl2 1.8; NaHCO3 4, NaH2PO4 0.8, D-glucose 5, sodium pyruvate 5, HEPES 10, adjusted to pH 7.4. Images were captured every 5 s using the 40× oil immersion objective of a Nikon TE 300 inverted microscope connected to a software-controlled (Metafluor, Molecular Devices, Sunnyvale, Calif., USA) cooled charge coupled (CCD) camera (Sensicam PE; PCO, Kelheim, Germany). […] Average fluorescence intensity was measured in a region of interest comprising the entire cell. […]
All quantitative data are presented as means ±SD. […]

[3] = test system: human MRP4; assay: MRP4 silencing in hCASMC (quantitative real-time PCR, western blot); type: cell-based; details: siRNA 50 nM, 72 hours after transfection
Method: Total RNA was prepared using RNeasy Mini Kit […] and 1 μg was reverse-transcribed using a standard protocol. One tenth of the resulting cDNA was amplified by 35 cycles of 30 s at 94° C., 30 s at Tm (60° C. for MRP4, MRP5 and RPL32) and 30 s at 72° C., followed by a final amplification at 72° C. for 10 min using 1 unit of BIOTAQ DNA Polymerase (Bioline) and 200 pmol each of the following primers: […]
Gene specific primers were used to amplify mRNA by qPCR on a Mx4000 apparatus (Stratagene) using the Qiagen SYBR Green master mix. The specificity of each primer set was monitored by analysis of the dissociation curve. A sample volume of 25 μl was used for each assay, which contained a 1× final concentration of SYBR green PCR master mix, 400 nM gene specific primers, and 5 μl template.
Total cell lysates were prepared according to standard protocol (Upstate Biotechnology). […] Optical Density was quantified using ImageJ software (National Institutes of Health, Bethesda, Md.). […]

[4] = test system: cyclic nucleotide efflux from hCASMCs; assay: cAMP and cGMP competitive enzyme immunoassay, intra-/extra-cellular ratio in hCASMC; type: cell-based, human; details: hCASMC transfected 72 h
Method: Cyclic GMP and AMP were measured in cell culture supernates and in cell lysates in hCASMC transfected for 72 h either with the scramble siRNA or the MRP4 siRNA by specific competitive enzyme immunoassay as described by the manufacturer (R&D systems).

[5] = test system: phosphorylated CREB (pCREB); assay: Phosphorylated CREB western blot in proliferating hCASMC; type: cell-based, human; details: p=0.003
Method: Total cell lysates were prepared according to standard protocol (Upstate Biotechnology). Membrane proteins were isolated by scraping the cells in buffer A (5 mmol/L Tris/HCl, 250 mmol/L sucrose, and 0.1 mmol/L ethylenediaminetetraacetic acid supplemented with protease inhibitors cocktail (Sigma). The lysate was centrifuged at 10000 g for 10 min at 4° C. and the supernatant further centrifuged at 100000 g for 1 h at 4° C. The resulting pellet was resuspended in buffer A. Proteins (50 μg) were separated by SDS 12% PAGE, blotted on Hybond-C membrane (Amersham Biosciences) and incubated with various antibodies. The anti-MRP4 antibody was previously described^17. Other antibodies were: anti-MRP5 antibody (1:250; Santa-Cruz Biotechnology), anti-Caveolin1 (1:5000, Abcam), anti-cyclinD1 (1:500, BD Biosciences), anti-PP2B (calcineurin) (1:250; BD Biosciences), anti-CREB (1:1000; Upstate Biotechnology), anti-phosphorylated CREB (1:1000; Upstate Biotechnology). Immunoreactive proteins were visualized using an ECL® (enhanced chemiluminescence) detection system (Amersham Biosciences). Optical Density was quantified using ImageJ software (National Institutes of Health, Bethesda, Md.). […]

[6] = test system: cAMP responsive element CRE; assay: CRE-luciferase reporter gene assay in hCASMC; type: cell-based, human; details: 5% S, percent of control
Method: Cells were co-transfected with the siRNA (50 nM) and the CRE-luciferase reporter gene plasmid (Stratagene) by electroporation using amaxa® Nucleofector technology according to manufacturer's instructions. After, a period of 6 h, the medium was replaced with supplement containing medium. Cells were grown in the presence of 5% S for 66 h. The results are means for three independent experiments performed in triplicate. The luciferase activity was measured by using “the luciferase assay kit” (Promega). It was expressed as percent of control in relative luciferase units.

[7] = test system: hCASMC; assay: TUNEL staining for apoptosis in hCASMC; type: cell-based, human; details: siRNA transfected 72 h
Method: MRP4 or scramble siRNA were transfected in hCASMC for 72 h and the apoptosis was analyzed by TUNEL staining (ApopTag Red, Serologicals Corp). For the positive control, cells were treated with staurosporin (10 μM) for 1 h.

[8] = test system: human pulmonary artery smooth muscle cells (hPASMC); assay: BrdU incorporation proliferation assay in hPASMC; type: cell-based
Source text: FIG. 10. Inhibition of hPASMC (human pulmonary artery smooth musclulare cells) proliferation with MRP4 siRNA.

[9] = 5% S, 72 h, maximal dose used (MK571 37.5 μM, NBMPR 100 μM)

Compound: CC(C)Cn1c(=O)n(C)c(=O)c2[nH]cnc21 [IBMX]
- hCASMC proliferation, relative increase compared to 0.1% S ([1]; 5% S, 72 h, IBMX 100 μM): 170±12%
- dose-effect on hCASMC proliferation ([1]; 5% S, 72 h): dose-dependent inhibition

Compound: CN(C)C(=O)CCSC(SCCC(=O)O)c1cccc(/C=C/c2ccc3ccc(Cl)cc3n2)c1 (centres unmarked) [MK571]
- dose-effect on hCASMC proliferation ([1]; 5% S, 72 h): dose-dependent inhibition
- hCASMC proliferation, relative increase compared to 0.1% S [1, 9]: 153±11%
- inhibitory effect on hCASMC proliferation under inhibition of PKA by Ad-PKI ([1]; MK571 37.5 μM, NMBPR 100 μM): also reversed

Compound: O=[N+]([O-])c1ccc(CSc2ncnc3c2ncn3[C@@H]2O[C@H](CO)[C@@H](O)[C@H]2O)cc1 [NBMPR]
- dose-effect on hCASMC proliferation ([1]; 5% S, 72 h): dose-dependent inhibition
- hCASMC proliferation, relative increase compared to 0.1% S [1, 9]: 140±15%
- inhibitory effect on hCASMC proliferation under inhibition of PKA by Ad-PKI ([1]; MK571 37.5 μM, NMBPR 100 μM): also reversed

Compound: OCCN(CCO)c1nc(N2CCCCC2)c2nc(N(CCO)CCO)nc(N3CCCCC3)c2n1 [dipyridamole]
- reduction of hCASMC proliferation compared to MK571 or NBMPR ([1]; 5% S, 72 h): no significant difference
- dose-effect on hCASMC proliferation ([1]; 5% S, 72 h): dose-dependent inhibition

Compound: C=C[C@@]1(C)CC(=O)[C@]2(O)[C@@]3(C)[C@@H](O)CCC(C)(C)[C@@H]3[C@H](O)[C@H](OC(C)=O)[C@@]2(C)O1 [forskolin]
- EC50 ([2]; MRP4 siRNA transfected hCASMC): 3 ± 0.6 µM
- EC50 ([2]; scramble siRNA transfected hCASMC): 13.3 ± 2.2 µM

Compound: MRP4 siRNA: siRNA against human MRP4, sense 5′-CAGUGUUCUUACACUUCCUTT-3′ (SEQ ID NO:7), anti-sense 5′-AGGAAGUGUAAGAACACUGTT-3′ (SEQ ID NO:8) (chemistry not given here)
- decrease in MRP4 mRNA compared to scramble siRNA [3]: 75±1%
- decrease in MRP4 protein level compared to scramble siRNA ([3]; western blot): 74±6.8%
- cAMP intra-cellular/extra-cellular ratio compared to scramble siRNA [4]: 289±12.5%
- cGMP intra-cellular/extra-cellular ratio compared to scramble siRNA [4]: 230±5.5%
- increase in level of pCREB compared to scramble siRNA [5]: 329±15%
- CRE-luciferase activity compared to scramble siRNA [6]: 553±25%
- apoptosis in hCASMC [7]: not associated with apoptosis
- hPASMC proliferation compared to scrambled siRNA [8]: significant decrease; also recorded: inhibits
- inhibitory effect on hCASMC proliferation under inhibition of PKG by KT5823 ([1]; KT5823, MK571 37.5 μM, NMBPR 100 μM): not by the inhibition of cGMP-dependent protein kinase G
- inhibitory effect on hCASMC proliferation under inhibition of PKA by Ad-PKI ([1]; MK571 37.5 μM, NMBPR 100 μM): completely reversed
- supplement mix-induced hCASMC proliferation, relative increase compared to 0.1% S ([1]; siRNA 50 nM, 72 h, 5% S, scramble siRNA 313±35%): 183±27%
